Measured values reported in US10180422B1, “Methods of treating a neuroendocrine tumor” (Scripps Health, priority 2017, dated 2019).
Entries after “also recorded” stand apart in the source; their conditions may differ.

Test system: neuroendocrine tumor (NET) with ETV6:NTRK3 translocation
Test: Treatment of a NET patient with the Trk inhibitor entrectinib (case report, Example 1)
Assay type: in vivo, human
Conditions: for weight gain: patient
Text: A previously healthy patient presented with progressive low back pain and 11 kg weight loss over the previous year. They were a never-smoker, occasional alcohol drinker, and an avid runner. The patient had no relevant family history of cancer.
A right upper quadrant ultrasound noted echogenic masses present in the liver. A computed tomography (CT) scan identified low-density liver lesions, adrenal masses, bulky retroperitoneal and pelvic lymphadenopathy, and diffuse bony disease. […] Multiple hypermetabolic liver lesions are seen, and innumerable lesions are seen throughout the skeleton (FIG. 1A). CT-guided biopsy of the left iliac bone reported well-differentiated neuroendocrine carcinoma (NETs), possibly from a lower GI source. […] Repeat CT-guided core biopsy of a right iliac soft tissue mass confirmed the absence of a high-grade component, consistent with the initial biopsy.
The patient received 3000 cGy of palliative radiotherapy to L1-S3 in 10 fractions for pain management followed by temozolomide and capecitabine chemotherapy.
Following chemotherapy, a tumor biopsy was obtained from the patient's lymph node, FFPE slides were prepared, and the NTRK status of the patient's NET was first analyzed by immunohistochemistry (IHC). The patient's tumor was positive for altered NTRK protein expression and the NET was subsequently analyzed by RNAseq NGS. An ETV6:NTRK3 translocation was identified in the patient's tumor and therapy was initiated with the investigational agent entrectinib, a potent oral tyrosine kinase inhibitor of TrkA, TrkB, and TrkC.

[1] = after cycle #1 (one month) of entrectinib treatment

## CN1CCN(c2ccc(C(=O)Nc3n[nH]c4ccc(Cc5cc(F)cc(F)c5)cc34)c(NC3CCOCC3)c2)CC1 [entrectinib, N-[5-(3,5-difluoro-benzyl)-1h-indazol-3-yl]-4-(4-methyl-piperazin-1-yl)-2-(tetrahydro-pyran-4-ylamino)-benzamide]
After 1 cycle of entrectinib, compared with the scan after chemotherapy (FIG. 3B vs 3A)
  axial contrast-enhanced abdominal CT, left pelvic sidewall masses: appear swollen and measure larger, but are lower in density; also recorded: appeared swollen and measured larger, but was lower in density than the previous scan
After 2 cycles of entrectinib (FIG. 1B, right proximal femur)
  FDG-PET imaging, skeleton / bony disease: improvement in the previously confluent bony disease; also recorded: clear improvement was observed in the skeleton
After 6 months (6 cycles) of entrectinib, compared with presentation (FIG. 2B vs 2A)
  octreoscan, overall disease (tumor) burden: significant overall reduction in tumor burden; also recorded: significant reduction in overall disease burden
[1]
  pain and energy levels (patient-reported): significant improvement in pain and energy levels
  weight gain: 6 kg
At 8 months on entrectinib
  clinical status (energy, activity, pain control requirements): normalized energy and activity, and markedly reduced pain control requirements
During entrectinib treatment
  response of liver metastases: some liver metastases have responded, while others have not
Patient on entrectinib up to 8 months
  adverse events: no notable adverse events
At 8 months on entrectinib, stabilized
  weight gain: 12 kg
Subsequent months of entrectinib treatment
  follow-up CT scans, pelvic nodal masses: continued shrinkage of the pelvic nodal masses
